Source: patent US10829487B2, “Benzylamino substituted pyridopyrimidinones and derivatives as SOS1 inhibitors” (Boehringer Ingelheim International GmbH, priority 2017, dated 2020)

Legend:
[1] = system: ERK phosphorylation in DLD-1 cells (KRAS G13D); assay: ERK Phosphorylation Assay (AlphaLISA SureFire Ultra p-ERK1/2); assay type: cell-based; settings: Homo sapiens, 1 h compound, EGF 50 ng/mL 10 min, read-out: pERK
Method: ERK Phosphorylation Assay
Low IC50 values are indicative of high potency of the SOS1 inhibitor compounds in this assay setting.
ERK phosphorylation assays are performed using the following human cell lines: DLD-1 (ATCC CCL-221): human colon cancer with a KRAS G13D mutation;
DLD-1 cells (ATCC CCL-221) are seeded at 50,000 cells per well in/60 μL of RPMI with 10% FBS, non-essential amino acids, pyruvate and glutamax in Greiner TC 384 plates. The cells are incubated for 1 h at room temperature and then incubated overnight in an incubator at 37° C. and 5% CO2 in a humidified atmosphere. 60 nL compound solution (10 mM DMSO stock solution) is then added using a Labcyte Echo 550 device. After a 1 h incubation in the aforementioned incubator, 3 μL Epidermal Growth Factor (EGF, final concentration 50 ng/mL) is added. 10 minutes later the medium is removed, and the cells lysed by addition of 20 μL of 1.6-fold lysis buffer from the AlphaLISA SureFire Ultra pERK1/2 (Thr202/Tyr204) Assay Kit with added protease inhibitors, 100 nM trametinib+100 nM staurosporine. After 20 minutes of incubation at room temperature with shaking, 6 μL of each lysate sample is transferred to a 384-well Proxiplate and analyzed for pERK (Thr202/Tyr204) with the AlphaLISA SureFire Ultra pERK1/2 (Thr202/Tyr204) Assay Kit. 3 μL Acceptor Mix and 3 μL Donor Mix are added under subdued light and incubated for 2 h at room temperature in the dark, before the signal is measured on a Perkin Elmer Envision plate reader using 384 AlphaScreen settings for Proxiplates. Data are fitted by iterative calculation with variable hill slope. The sigmoidal curve slope is fitted using a default fitting curve to ascertain IC50 values.

[2] = target: protein-protein interaction between SOS1 and KRAS G12D (Homo sapiens (Human), UniProt Q07889); assay: KRAS::SOS1 AlphaScreen Binding Assay
Text: KRAS::SOS1 AlphaScreen Binding Assay
Low IC50 values are indicative of high potency of the SOS1 inhibitor compound in this assay setting:
Reagents: • GST-tagged SOS1 (564_1049_GST_TEV_ECO) produced in-house • GST-TEV-SOS1 (564-1049) is purchased from Viva Biotech Ltd. • 6×His-Tev-K-RasG12D(1-169)Avi is purchased from Xtal BioStructures, Inc. (Lot # X129-110) • GDP (Sigma Cat No G7127) • AlphaLISA Glutathione Acceptor Beads (PerkinElmer, Cat No AL109) • AlphaScreen Streptavidin Donor Beads (PerkinElmer Cat No 6760002) • Assay plates: Proxiplate-384 PLUS, white (PerkinElmer, Cat No 6008289)
10 nM (final assay concentration) KRAS G12D, 10 μM (final assay concentration) GDP and 5 nM (final assay concentration) GST-SOS1 are mixed in assay buffer prior to use and kept at room temperature.
AlphaLISA Glutathione Acceptor Beads and AlphaScreen Streptavidin Donor Beads are mixed in assay buffer at a concentration of 10 μg/mL (final assay concentration) each prior to use and kept at room temperature.
Compounds are diluted to a final start concentration of 100 μM and are tested in duplicate. Assay-ready plates (ARPs) are generated using an Access Labcyte Workstation with a Labcyte Echo 550 or 555 accoustic dispenser. For compound a start concentration of 100 μM, 150 nL of compound solution is transferred per well in 11 concentrations in duplicate with serial 1:5 dilutions.
The assay is run using a fully automated robotic system in a darkened room below 100 Lux. 10 μL of KRAS::SOS1 GDP mix is added into columns 1-24 to the 150 nL of compound solution (final dilution in the assay 1:100, final DMSO concentration 1%).
After a 30 minute incubation time 5 μL of bead mix is added into columns 1-23. Plates are kept at room temperature in a darkened incubator. After a further 60 minute incubation, the signal is measured using a PerkinElmer Envision HTS Multilabel Reader using the AlphaScreen specifications from PerkinElmer. Each plate contains the following controls: • diluted DMSO+KRAS::SOS1 GDP mix+bead mix • diluted DMSO+KRAS::SOS1 GDP mix
IC50 values are calculated and analyzed using a 4 parametric logistic model.

[3] = Metabolic (microsomal) stability assay, mouse liver microsomes (MLM); assay type: in vitro ADME; settings: 1 μM test compound, 37° C.
Method: (§1) Metabolic (Microsomal) Stability Assay: The metabolic degradation of the test compound is assayed at 37° C. with pooled liver microsomes (mouse (MLM), rat (RLM) or human (HLM)). The final incubation volume of 74 μL per time point contains TRIS buffer (pH 7.5; 0.1 M), magnesium chloride (6.5 mM), microsomal protein (0.5 mg/mL for mouse/rat, 1 mg/mL for human specimens) and the test compound at a final concentration of 1 μM. Following a short preincubation period at 37° C., the reactions are initiated by addition of 8 μL beta-nicotinamide adenine dinucleotide phosphate, reduced form (NADPH, 10 mM) and terminated by transfering an aliquot into solvent after different time points. Additionally, the NADPH-independent degradation is monitored in incubations without NADPH, terminated at the last time point by addition of acetonitrile. The quenched incubations are pelleted by centrifugation (1811 g, 5 min). An aliquot of the supernatant is assayed by LC-MS/MS for the amount of parent compound. In vitro intrinsic clearance (CLint, in vitro) is calculated from the time course of the disappearance of the test drug during the microsomal incubation. Each plot is fitted to the first-order elimination rate constant as C(t)=C0*exp(−ke*t), where C(t) and C0 are the concentration of unchanged test drug at incubation time t and that at preincubation and ke is the disappearance rate constant of the unchanged drug. Subsequently, CLint, in vitro (μL min^−1·amount protein) values are converted to CLint, in vitro (mL min^−1·kg^−1) for the whole body. CLint, in vitro data are scaled up using physiological parameters. For better across species comparison the predicted clearance is expressed as percent of the liver blood flow [% QH] in the individual species. In general, high stability (corresponding to low % QH) of the compounds across species is desired.

[4] = Metabolic (microsomal) stability assay, rat liver microsomes (RLM); assay type: in vitro ADME; settings: 1 μM test compound, 37° C.
Method: as §1

[5] = Metabolic (microsomal) stability assay, human liver microsomes (HLM); assay type: in vitro ADME; settings: 1 μM test compound, 37° C.
Method: as §1

[6] = Table 20, KRAS::SOS1 AlphaScreen (SOS1 / KRAS G12D)
[7] = KRAS G12D::SOS1 AlphaScreen, measured without EDTA unless marked with an asterisk

Chain of protein-protein interaction between SOS1 and KRAS G12D (Q07889 564-1049, stated change not applied): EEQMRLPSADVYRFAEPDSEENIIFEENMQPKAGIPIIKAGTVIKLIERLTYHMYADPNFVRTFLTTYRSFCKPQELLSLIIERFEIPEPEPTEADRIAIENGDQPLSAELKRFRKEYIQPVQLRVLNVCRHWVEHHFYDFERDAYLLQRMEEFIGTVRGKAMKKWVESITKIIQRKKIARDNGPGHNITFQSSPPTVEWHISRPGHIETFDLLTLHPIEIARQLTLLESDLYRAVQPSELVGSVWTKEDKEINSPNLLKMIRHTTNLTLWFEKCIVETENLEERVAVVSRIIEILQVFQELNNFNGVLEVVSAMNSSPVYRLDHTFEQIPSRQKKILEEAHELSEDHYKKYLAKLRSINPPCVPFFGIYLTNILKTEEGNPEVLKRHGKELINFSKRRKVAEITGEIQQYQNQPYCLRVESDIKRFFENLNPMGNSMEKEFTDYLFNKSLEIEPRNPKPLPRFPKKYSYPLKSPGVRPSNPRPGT

IC50 [1] [nM]	IC50 [2, 6] [nM]	IC50 [2, 7] [nM]	Compound	other results
88	3		C[C@@H](Nc1ncnc2cc(=O)n(C34CCC(F)(CC3)CC4)cc12)c1cccc(C(F)F)c1F [I-73]	
	11		Cc1nc(N[C@H](C)c2cccc(C(F)F)c2F)c2cn([C@H](C)C(F)(F)F)c(=O)cc2n1 [I-10]	MLM [% QH] [3]: 41 % QH; RLM [% QH] [4]: 40 % QH; HLM [% QH] [5]: <24 % QH
85		2	Cc1nc(N[C@H](C)c2cccc(C(F)F)c2C)c2cn(C34CCC(C(=O)N(C)C)(CC3)CC4)c(=O)cc2n1 [I-124]	
	7		C[C@@H](Nc1ncnc2cc(=O)n(C34CC(F)(C3)C4)cc12)c1cccc(C(F)F)c1F [I-71]	MLM [% QH] [3]: <24 % QH; RLM [% QH] [4]: <23 % QH; HLM [% QH] [5]: <24 % QH
38		1	Cc1nc(N[C@H](C)c2cccc(C(F)(F)CO)c2F)c2cn(C34CCC(CC3)CC4)c(=O)cc2n1 [I-130]	
	6		C[C@@H](Nc1ncnc2cc(=O)n([C@H]3C[C@H](F)C3)cc12)c1cccc(C(F)F)c1F [I-69]	MLM [% QH] [3]: <24 % QH; RLM [% QH] [4]: 40 % QH; HLM [% QH] [5]: <24 % QH
70	5		Cc1nc(N[C@H](C)c2cccc3c(F)coc23)c2cn(C3(C(F)F)CC3)c(=O)cc2n1 [I-103]	
93		5	Cc1nc(N[C@H](C)c2cccc(C(F)F)c2F)c2cn(C34CCC(F)(CC3)CC4)c(=O)cc2n1 [I-121]	
87		4	C[C@@H](Nc1ncnc2cc(=O)n(C3(C)CC3)cc12)c1cccc2c1CCC2(F)F [I-104]	
89	2		Cc1nc(N[C@H](C)c2cccc3c2CCC3(F)F)c2cn(C3(C(F)F)CC3)c(=O)cc2n1 [I-58]	
			Cc1nc(N[C@H](C)c2cccc(C(F)F)c2F)c2cn(C3(C(F)F)CC3)c(=O)cc2n1 [I-3]	MLM [% QH] [3]: 51 % QH; RLM [% QH] [4]: <23 % QH; HLM [% QH] [5]: <24 % QH
96	4		Cc1nc(N[C@H](C)c2cccc(C(C)(F)F)c2F)c2cn(C3(C)CC3)c(=O)cc2n1 [I-52]	
	6		Cc1nc(N[C@H](C)c2cccc(C(C)(F)F)c2F)c2cn(C3(C)CC3)c(=O)c(F)c2n1 [I-86]	MLM [% QH] [3]: 33 % QH; RLM [% QH] [4]: <23 % QH; HLM [% QH] [5]: <24 % QH
113		4	C[C@@H](Nc1ncnc2cc(=O)n(C34CC(C3)C4)cc12)c1cccc2c1CCC2(F)F [I-106]	
33			Cc1nc(N[C@H](C)c2cccc(C(F)(F)F)c2C)c2cn(C3(CF)CC3)c(=O)cc2n1 [I-38]	
93		6	Cc1c(=O)n(C23CCC(F)(CC2)CC3)cc2c(N[C@H](C)c3cccc(C(F)F)c3F)ncnc12 [I-171]	
61	5		Cc1nc(N[C@H](C)c2cccc(C(F)(F)F)c2C)c2cn(C3(C)CC3)c(=O)cc2n1 [I-37]	
70		5	Cc1nc(N[C@H](C)c2cccc(C(F)F)c2F)c2cn([C@]3(C(F)(F)F)CCOC3)c(=O)cc2n1 [I-119]	

IC50 [1] [nM]	IC50 [2, 6] [nM]	IC50 [2, 7] [nM]	Compound	other results
67	4		Cc1nc(N[C@H](C)c2cccc3c2OCC3(F)F)c2cn(C3(C(F)F)CC3)c(=O)cc2n1 [I-102]	
91		2	Cc1c(=O)n(C23CCC(CC2)C3)cc2c(N[C@H](C)c3cccc4c3CCC4(F)F)ncnc12 [I-177]	
104		5	Cc1nc(N[C@H](C)c2cccc(C(F)F)c2C)c2cn(C3(C)CC3)c(=O)c(C)c2n1 [I-157]	
57		4	Cc1nc(N[C@H](C)c2cccc(C(F)F)c2F)c2cn(C34CCC(O)(CC3)CC4)c(=O)c(C)c2n1 [I-156]	
113	3		Cc1nc(N[C@H](C)c2cccc3c2CCC3(F)F)c2cn(C34CC(C3)C4)c(=O)cc2n1 [I-59]	
120		10	Cc1c(=O)n(C23CC(F)(C2)C3)cc2c(N[C@H](C)c3cccc(C(C)(F)F)c3F)ncnc12 [I-176]	
111	4		Cc1nc(N[C@H](C)c2cccc(C(F)F)c2C)c2cn(C3(C)CCC3)c(=O)cc2n1 [I-23]	
62	18		Cc1nc(N[C@H](C)c2cccc(C(F)(F)F)c2C)c2cn(C3(C(F)(F)F)CC3)c(=O)cc2n1 [I-39]	
	30		Cc1nc(N[C@H](C)c2cccc(CC(F)(F)F)c2)c2cn(C3(C(F)F)CC3)c(=O)cc2n1 [I-100]	
		9	Cc1nc(N[C@H](C)c2cccc(C(F)(F)F)c2)c2cn(C3(C)CCOC3)c(=O)cc2n1 (stereo partly drawn) [I-111]	
	7		C[C@@H](Nc1ncnc2cc(=O)n(C3(C)CC3)cc12)c1cccc(C(C)(F)F)c1F [I-76]	
113	3		Cc1nc(N[C@H](C)c2cccc(C(F)F)c2C)c2cn(C3(C(F)F)CC3)c(=O)cc2n1 [I-21]	
	12		Cc1nc(N[C@H](C)c2cccc(C(F)F)c2F)c2cn(C34CC(F)(C3)C4)c(=O)cc2n1 [I-16]	
	5		Cc1nc(N[C@H](C)c2cccc(C(F)(F)[C@@H]3CCCO3)c2F)c2cn(C3(C(F)F)CC3)c(=O)c(F)c2n1 [I-95]	
		13	Cc1nc(N[C@H](C)c2cccc(C(F)(F)F)c2)c2cn(C3(C)CCOCC3)c(=O)cc2n1 [I-112]	
95	1		Cc1nc(N[C@H](C)c2cccc(C(F)(F)CO)c2F)c2cn(C34CCC(CC3)C4)c(=O)cc2n1 [I-61]	
	5		Cc1nc(N[C@H](C)c2cccc(C(F)F)c2F)c2cn(C34CC(N5CCOCC5)(C3)C4)c(=O)cc2n1 [I-17]	
	10		C[C@@H](Nc1ncnc2cc(=O)n(C3(C(F)(F)F)CC3)cc12)c1cccc(C(F)F)c1F [I-65]	
